Data reported in patent US5679680A, “α-substituted hydrazides having calpain inhibitory activity” (Warner-Lambert Company, priority 1995, dated 1997).
Square brackets hold non-standard residues; d marks the D form. Ends that are not written are not given here. Peptide text beside a SMILES is read from it. Nle = CCCC[C@H](N)C(=O)O

Columns and labels:
Human Calpain II = target: T1, Human Calpain II (Homo sapiens, UniProt P17655); assay: Calpain II activity, casein substrate, Coomassie microplate assay; assay type: biochemical; details: casein 0.5 mg/mL (Table I)
T1 sequence (P17655 1-700): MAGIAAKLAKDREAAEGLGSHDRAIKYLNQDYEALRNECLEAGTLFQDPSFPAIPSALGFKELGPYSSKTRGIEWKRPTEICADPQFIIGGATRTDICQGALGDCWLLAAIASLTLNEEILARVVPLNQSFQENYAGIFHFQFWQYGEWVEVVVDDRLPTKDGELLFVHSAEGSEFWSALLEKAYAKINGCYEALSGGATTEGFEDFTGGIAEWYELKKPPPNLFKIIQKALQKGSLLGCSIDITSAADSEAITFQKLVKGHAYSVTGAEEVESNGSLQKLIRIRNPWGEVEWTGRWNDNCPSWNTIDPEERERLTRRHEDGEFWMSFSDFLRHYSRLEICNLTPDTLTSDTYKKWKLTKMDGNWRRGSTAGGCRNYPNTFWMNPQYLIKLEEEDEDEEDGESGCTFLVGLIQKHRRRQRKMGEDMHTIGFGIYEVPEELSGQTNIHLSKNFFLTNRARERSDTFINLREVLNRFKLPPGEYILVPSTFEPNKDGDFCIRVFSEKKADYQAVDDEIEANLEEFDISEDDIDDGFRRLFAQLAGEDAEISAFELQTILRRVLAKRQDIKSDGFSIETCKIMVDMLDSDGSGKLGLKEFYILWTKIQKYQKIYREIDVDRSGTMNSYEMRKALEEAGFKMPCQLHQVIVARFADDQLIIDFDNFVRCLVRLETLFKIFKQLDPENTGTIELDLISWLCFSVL
T1 sequence (P04632 1-268 partner): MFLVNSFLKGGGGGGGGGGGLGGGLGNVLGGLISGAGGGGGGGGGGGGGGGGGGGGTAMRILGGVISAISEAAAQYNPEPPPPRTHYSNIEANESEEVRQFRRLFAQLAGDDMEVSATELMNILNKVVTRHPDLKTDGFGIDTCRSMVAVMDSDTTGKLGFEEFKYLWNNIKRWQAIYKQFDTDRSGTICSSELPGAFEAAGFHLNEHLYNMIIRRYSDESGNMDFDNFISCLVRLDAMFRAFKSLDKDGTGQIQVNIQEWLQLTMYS
Experimental: (§1) Assay of calpain activity: Calpain I was purified from human erythrocytes as described by Wang K K W, Roufogalis B D, and Villalobo A, Arch Biochem Biophys 1988;267: 317-327. Calpain activity was assayed in a 96-well microplate format (Buroker-Kilgore M and Wang K K W, Anal Bio Chem 1993;208: 387-392). In 250 μL of reaction mixture, substrate casein (0.5 mg/mL) was incubated with 0.01 unit (80-120 ng) calpain I, 20 mM dithiothreitol (DTT), 50 mM Tris-HCl (pH 7.4 at 25° C.) and 4 mM CaCl2 at 25° C. for 60 minutes. Two 100-μL aliquots were taken for Coomassie blue G250 binding analysis to quantify the remaining casein.
(§2) Compound concentrations that cause 50% inhibition (IC50) are as shown (Table I). The second rate of inactivation of calpain I for 2 compounds are also shown.
(§3) Selectivity of α-substituted Hydrazides: Calpain I and II were assayed as described in Example 1. One to 2 ng papain (papaya latex, Sigma, P3125), 1.25 μg trypsin (bovine pancreas, Sigma, T8003), 5 μg thermolysin (Bacillus thermoproteolyticus, Sigma, P1512) were assayed using 0.5 mg/mL casein as substrate in the microplate format (250 μL reaction volume), essentially a described by Buroker-Kilgore, M. and Wang K K W, Anal Biochem 1993;208: 387-392. Cathepsin B (0.002 unit, bovine spleen) was assayed with 50 mM MES (pH 5.5), 100 μM carbobenzoxy-Arg-Arg-4-methoxy-beta-naphthlamide (Cbz-Arg-Arg-MNA), inhibitor, and 2 mM DTT in 200 μL for 60 minutes at room temperature. Fifty-microliter aliquots were transferred to a fluorescence-compatible plate and then read with a Perkin-Elmer fluorometer LS-50B (excitation 340 nm and emission 425 nm). Calcineurin (bovine brain, Sigma) (5 μg, 0.8 unit) was assayed with 10 mM p-nitrophenyl phosphate in 1 mM DTT, 1 mM CaCl2, 1 mM MnCl2, […] calmodulin (CaM, if added), and 50 mM Tris-HCl (pH 7.4) at 25° C. for 60 minutes or more. Production of p-nitrophenol was monitored at 405 nm. Inhibition of these proteases are presented as IC50.

Human Calpain I = target: T2, Human Calpain I (Homo sapiens, UniProt P07384); assay: Calpain I activity, casein substrate, Coomassie microplate assay; assay type: biochemical; details: for IC50: casein 0.5 mg/mL, pH 7.4, 25° C., 60 minutes (Table I)
T2 construct: Calpain I was purified from human erythrocytes; from tissue; host or cells: human erythrocytes
T2 sequence (P07384 1-714): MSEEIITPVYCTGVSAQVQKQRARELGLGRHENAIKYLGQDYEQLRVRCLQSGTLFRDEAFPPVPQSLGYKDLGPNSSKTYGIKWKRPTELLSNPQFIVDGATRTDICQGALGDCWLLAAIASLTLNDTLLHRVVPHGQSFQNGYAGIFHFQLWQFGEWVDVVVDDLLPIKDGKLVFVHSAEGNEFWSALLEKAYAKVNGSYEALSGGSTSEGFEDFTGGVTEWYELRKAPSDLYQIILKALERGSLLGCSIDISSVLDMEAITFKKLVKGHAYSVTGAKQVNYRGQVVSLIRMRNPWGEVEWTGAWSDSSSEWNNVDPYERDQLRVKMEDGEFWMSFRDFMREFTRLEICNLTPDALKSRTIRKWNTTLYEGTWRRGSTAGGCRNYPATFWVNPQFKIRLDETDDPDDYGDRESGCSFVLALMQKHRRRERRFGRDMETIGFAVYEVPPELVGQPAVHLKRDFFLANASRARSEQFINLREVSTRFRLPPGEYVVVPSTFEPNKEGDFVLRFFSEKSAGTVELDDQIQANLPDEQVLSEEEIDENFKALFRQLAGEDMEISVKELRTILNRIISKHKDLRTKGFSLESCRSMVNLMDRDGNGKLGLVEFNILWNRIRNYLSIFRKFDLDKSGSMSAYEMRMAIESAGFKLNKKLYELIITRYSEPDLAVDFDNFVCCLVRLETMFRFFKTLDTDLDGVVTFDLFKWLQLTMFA
T2 sequence (P04632 1-268 partner): T1 sequence (P04632 1-268 partner)
Experimental: as §1, §2, §3

[1] = tested on: Spectrin Breakdown in Human Leukemic Molt-4 cells; assay: Cell-based calpain assay: spectrin breakdown in Molt-4 cells treated with calcium ionophore A23187; details: 1 hour preincubation, 15 μM A23187, 90 minutes, read-out: IC50 for inhibition of spectrin breakdown (145 kD fragment formation)
Experimental: Calpain inhibitor was added to the wells if desired and preincubated for 1 hour. […] The cells were then lysed with 2% (w/v) SDS, 5 mM EGTA, 5 mM EDTA, 150 mM NaCl, 0.5 mM PMSF, 10 μg/mL AEBSF, 5 μg/mL leupeptin, 10 μg/mL pepstatin, 10 μg/mL TLCK, 10 μg/mL TPCK, and 20 mM Tris-HCl (pH 7.4) at room temperature for 5 to 10 minutes. One hundred microliters of 100% (w/v) TCA was added and total protein precipitate was collected by microcentrifugation. The final pellets were neutralized with Tris base. Protein samples (50 μg) were run on SDS-PAGE with the Tris-glycine running buffer system and transferred onto a PVDF membrane. The blots were probed with an anti-spectrin (nonerythroid) antibody and a second antibody with alkaline phosphatase conjugate. The blots were developed with nitro blue tetrazolium and 5-bromo-4-chloro-3-indolyl-phosphate.

[2] = tested on: acute myocardiac infraction in dogs; details: coronary reperfusion after acute myocardiac infraction; cited from earlier work
cataract = details: whole animal; cited from earlier work
aggregin = details: cited from earlier work
platelet = details: cited from earlier work
ischemic neocortex = details: applied directly to the surfaces of ischemic neocortex; cited from earlier work
restenosis = details: in vivo; cited from earlier work

## O=C(CCl)NN=c1[nH]c2ccccc2n(-c2ccc(Cl)cc2)c1=O [Example 9, 2-Chloro-acetic acid [4-(4-chloro-phenyl)-3-oxo-3,4-dihydro-1H-quinoxalin-2-ylidene]-hydrazide]
Human Calpain II
  IC50: 0.158 µM
Human Calpain I
  Ki/[I] Calpain I (second rate of inactivation): 63.7 M⁻¹ s⁻¹
  IC50: 0.486 µM
[1]
  IC50: 15 µM

## CC(C)CCNC(=O)[C@H](CC(C)C)NC(=O)[C@H]1O[C@@H]1C(=O)O [Example E64c]
[2]
  Size of infarct: significantly reduce the size of infract

## CC(C)C[C@H](NC(=O)[C@H]1O[C@@H]1C(=O)O)C(=O)NCCCCN=C(N)N [Example E64]
cataract
  Rate of cataract formation: reduce the rate of cataract formation

## Cn1c(=O)c(=NNC(=O)CCl)[nH]c2ccccc21 [Example 14, 2-Chloro-acetic acid (4-methyl-3-oxo-3,4-dihydro-1H-quinoxalin-3-ylidene)-hydrazide]
Human Calpain II
  IC50: 10.8 µM
Human Calpain I
  IC50: 8.28 µM

## Phe-Gln-Val-Val-Cys(3-nitro-2-thiopyridine)-Gly-NH2 (FQVVC(3‑nitro‑2‑thiopyridine)G-NH2)
aggregin
  Aggregin breakdown: blocked aggregin breakdown
platelet
  Platelet aggregation: blocked aggregin breakdown and platelet aggregation

## O=C(CBr)NN=c1[nH]c2ccccc2n(-c2ccccc2)c1=O [Example 4, 2-Bromo-acetic acid (3-oxo-4-phenyl-3,4-dihydro-1H-quinoxalin-2-ylidene)-hydrazide]
Human Calpain II
  IC50: 0.574 µM
Human Calpain I
  IC50: 0.697 µM
[1]
  IC50: 25 µM

## CCNC(=O)C(=O)C(CC)NC(=O)C(CC(C)C)NC(=O)OCc1ccccc1 (stereo not drawn) [AK275]
Ischemic neocortex
  Size of the expected infarct: dramatically and unequivocally reduce the size of the expected infarct

## CCCC[C@@H](C=O)NC(=O)[C@H](CC(C)C)NC(=O)[C@H](CC(C)C)NC(C)=O [calpain inhibitor I] (Ac-Leu-Leu-[Nle]-aldehyde)
restenosis
  Restenosis: can inhibit restenosis
